These results are taken from patent US20090143434A1 (priority 2007, published 2009).

Molecules are shown by their SMILES.

One data set addresses T1, hERG (Homo sapiens, UniProt Q12809).
T1 construct: expressed in transfected cells
Briefly: voltage clamp currents in mammalian cells stably transfected with cloned ion channel cDNA, hERG. Format: cell-based. The source says: (§1) Nonlinear least squares fits of the current ratio data yielded the best fit value for the IC50 concentration. A positive control was included for each channel tested in the study.

For a further data set, the target named is T2, hNav1.3 (Homo sapiens, UniProt Q9NY46).
T2 construct: expressed in transfected cells
Briefly: voltage clamp currents in mammalian cells stably transfected with cloned ion channel cDNA, hNav1.3. Format: cell-based.
From the text: as §1

In a further data set the target is T3, hHCN4 (Homo sapiens, UniProt Q9Y3Q4).
T3 construct: expressed in transfected cells
T3 sequence (Q9Y3Q4 1-1203): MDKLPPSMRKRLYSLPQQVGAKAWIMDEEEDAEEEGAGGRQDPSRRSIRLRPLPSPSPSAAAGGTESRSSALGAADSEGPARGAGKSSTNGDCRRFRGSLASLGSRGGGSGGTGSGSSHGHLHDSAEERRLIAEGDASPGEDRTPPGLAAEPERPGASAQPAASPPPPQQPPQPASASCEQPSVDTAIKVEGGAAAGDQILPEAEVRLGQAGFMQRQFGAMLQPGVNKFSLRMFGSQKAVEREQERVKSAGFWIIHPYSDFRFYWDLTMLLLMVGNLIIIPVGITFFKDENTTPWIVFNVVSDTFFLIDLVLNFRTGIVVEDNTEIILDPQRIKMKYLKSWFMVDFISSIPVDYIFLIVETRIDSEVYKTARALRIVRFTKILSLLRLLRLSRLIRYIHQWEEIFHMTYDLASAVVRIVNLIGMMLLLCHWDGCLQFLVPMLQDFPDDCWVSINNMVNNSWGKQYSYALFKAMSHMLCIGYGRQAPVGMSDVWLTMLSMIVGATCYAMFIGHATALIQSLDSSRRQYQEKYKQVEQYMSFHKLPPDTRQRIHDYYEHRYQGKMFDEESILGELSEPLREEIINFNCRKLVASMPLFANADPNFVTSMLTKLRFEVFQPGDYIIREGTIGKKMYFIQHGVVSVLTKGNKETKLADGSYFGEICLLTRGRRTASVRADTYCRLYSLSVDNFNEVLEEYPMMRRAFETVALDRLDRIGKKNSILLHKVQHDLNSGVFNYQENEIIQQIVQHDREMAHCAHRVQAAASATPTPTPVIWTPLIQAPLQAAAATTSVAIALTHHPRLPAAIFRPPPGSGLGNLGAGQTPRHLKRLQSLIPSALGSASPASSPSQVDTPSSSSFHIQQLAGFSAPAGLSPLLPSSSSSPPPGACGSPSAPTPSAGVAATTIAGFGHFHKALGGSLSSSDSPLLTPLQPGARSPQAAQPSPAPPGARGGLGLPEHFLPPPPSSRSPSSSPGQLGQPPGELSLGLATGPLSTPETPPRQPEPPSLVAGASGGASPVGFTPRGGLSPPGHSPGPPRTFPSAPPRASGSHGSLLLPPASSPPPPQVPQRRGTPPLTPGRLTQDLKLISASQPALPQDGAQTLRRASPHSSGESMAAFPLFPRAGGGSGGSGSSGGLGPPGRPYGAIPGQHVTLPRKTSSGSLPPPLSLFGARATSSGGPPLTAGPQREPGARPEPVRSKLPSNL
Briefly: voltage clamp currents in mammalian cells stably transfected with cloned ion channel cDNA, hHCN4. The format is cell-based.
From the text: as §1

A further data set deals with hNav1.5 (Homo sapiens, UniProt Q14524). Briefly: voltage clamp currents in mammalian cells stably transfected with cloned ion channel cDNA, hNav1.5. Format: cell-based.
hNav1.5, sequence (Q14524 whole entry): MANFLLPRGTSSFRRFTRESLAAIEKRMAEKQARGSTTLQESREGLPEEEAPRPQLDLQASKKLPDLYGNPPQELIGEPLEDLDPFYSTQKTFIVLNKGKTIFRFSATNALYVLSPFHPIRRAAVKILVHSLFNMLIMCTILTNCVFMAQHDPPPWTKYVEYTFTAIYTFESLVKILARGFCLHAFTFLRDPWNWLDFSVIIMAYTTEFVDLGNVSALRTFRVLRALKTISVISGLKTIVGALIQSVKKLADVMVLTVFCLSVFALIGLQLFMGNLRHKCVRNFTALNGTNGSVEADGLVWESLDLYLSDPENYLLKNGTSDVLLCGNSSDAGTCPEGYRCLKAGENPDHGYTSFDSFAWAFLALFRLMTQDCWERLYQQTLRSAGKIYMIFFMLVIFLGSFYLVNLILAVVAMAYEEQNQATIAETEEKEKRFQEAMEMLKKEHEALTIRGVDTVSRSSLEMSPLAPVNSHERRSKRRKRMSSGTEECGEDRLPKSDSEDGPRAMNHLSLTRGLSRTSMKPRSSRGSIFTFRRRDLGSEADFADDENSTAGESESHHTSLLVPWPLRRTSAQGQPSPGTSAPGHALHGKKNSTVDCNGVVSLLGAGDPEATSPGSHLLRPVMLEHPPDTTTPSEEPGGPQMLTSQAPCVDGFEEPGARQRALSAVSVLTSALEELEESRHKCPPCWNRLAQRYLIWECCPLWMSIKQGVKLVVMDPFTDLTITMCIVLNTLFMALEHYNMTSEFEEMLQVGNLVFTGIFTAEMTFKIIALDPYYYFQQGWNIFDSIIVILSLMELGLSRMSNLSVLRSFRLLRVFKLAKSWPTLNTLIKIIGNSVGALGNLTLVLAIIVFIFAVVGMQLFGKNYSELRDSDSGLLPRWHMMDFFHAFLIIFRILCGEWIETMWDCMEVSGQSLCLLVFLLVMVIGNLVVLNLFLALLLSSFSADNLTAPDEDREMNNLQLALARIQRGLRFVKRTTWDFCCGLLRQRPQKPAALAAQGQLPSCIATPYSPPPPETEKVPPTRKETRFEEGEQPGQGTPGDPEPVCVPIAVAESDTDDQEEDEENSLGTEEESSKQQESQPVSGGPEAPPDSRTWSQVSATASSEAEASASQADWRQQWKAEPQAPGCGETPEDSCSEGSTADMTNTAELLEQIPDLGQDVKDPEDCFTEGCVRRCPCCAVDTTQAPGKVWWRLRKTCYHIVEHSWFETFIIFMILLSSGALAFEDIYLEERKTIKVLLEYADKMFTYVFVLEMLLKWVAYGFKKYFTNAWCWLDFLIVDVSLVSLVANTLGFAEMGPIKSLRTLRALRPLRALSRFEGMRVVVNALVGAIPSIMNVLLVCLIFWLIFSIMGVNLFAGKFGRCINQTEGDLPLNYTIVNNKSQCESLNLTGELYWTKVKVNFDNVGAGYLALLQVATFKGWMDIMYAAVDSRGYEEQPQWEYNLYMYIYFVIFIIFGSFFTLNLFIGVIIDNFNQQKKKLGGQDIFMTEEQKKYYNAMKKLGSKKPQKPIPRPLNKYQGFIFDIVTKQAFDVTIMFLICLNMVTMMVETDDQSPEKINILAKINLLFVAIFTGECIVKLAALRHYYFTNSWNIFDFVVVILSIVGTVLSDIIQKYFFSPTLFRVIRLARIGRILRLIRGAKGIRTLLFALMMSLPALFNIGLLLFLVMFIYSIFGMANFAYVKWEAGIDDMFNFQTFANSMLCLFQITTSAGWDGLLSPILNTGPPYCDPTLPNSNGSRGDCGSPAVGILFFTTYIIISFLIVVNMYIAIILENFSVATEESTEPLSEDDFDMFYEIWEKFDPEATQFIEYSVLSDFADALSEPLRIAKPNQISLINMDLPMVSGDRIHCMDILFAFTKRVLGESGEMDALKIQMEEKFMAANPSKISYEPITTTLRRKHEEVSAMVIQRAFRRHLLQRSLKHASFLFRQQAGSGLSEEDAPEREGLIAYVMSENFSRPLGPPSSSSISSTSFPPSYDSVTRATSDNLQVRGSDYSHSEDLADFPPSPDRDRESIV
From the text: as §1

Another data set has as its target hCav3.2 (Homo sapiens, UniProt O95180). Briefly: cell-based.
From the text: as §1

A further data set addresses T4, hKv1.1 (Homo sapiens, UniProt Q09470).
T4 construct: expressed in transfected cells
Briefly: voltage clamp currents in mammalian cells stably transfected with cloned ion channel cDNA, hKv1.1. Format: cell-based.
From the text: as §1

For a further data set, the target named is hCav1.2 (Homo sapiens, UniProt Q13936). Briefly: voltage clamp currents in mammalian cells stably transfected with cloned ion channel cDNA, hCav1.2. Format: cell-based.
From the text: as §1

For a further data set, the target named is hKv1.3 (Homo sapiens, UniProt P22001). Briefly: voltage clamp currents in mammalian cells stably transfected with cloned ion channel cDNA, hKv1.3. The format is cell-based.
hKv1.3, sequence (P22001 whole entry): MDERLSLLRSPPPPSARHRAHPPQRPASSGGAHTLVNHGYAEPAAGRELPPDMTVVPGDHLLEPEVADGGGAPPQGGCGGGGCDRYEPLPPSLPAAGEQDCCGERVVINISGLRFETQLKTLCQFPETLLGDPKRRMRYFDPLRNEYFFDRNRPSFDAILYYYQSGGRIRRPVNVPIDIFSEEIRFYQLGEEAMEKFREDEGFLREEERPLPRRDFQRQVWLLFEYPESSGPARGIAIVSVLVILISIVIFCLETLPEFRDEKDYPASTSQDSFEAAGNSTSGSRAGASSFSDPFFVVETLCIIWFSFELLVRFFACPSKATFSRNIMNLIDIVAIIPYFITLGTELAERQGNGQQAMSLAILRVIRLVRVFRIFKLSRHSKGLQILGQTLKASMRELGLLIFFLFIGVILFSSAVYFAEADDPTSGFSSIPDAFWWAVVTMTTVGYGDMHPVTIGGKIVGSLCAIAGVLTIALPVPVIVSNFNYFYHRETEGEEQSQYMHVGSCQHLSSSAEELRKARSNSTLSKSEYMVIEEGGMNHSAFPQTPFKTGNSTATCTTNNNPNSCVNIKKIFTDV
From the text: as §1

The target of another data set is T5, hKv4.3 (Homo sapiens, UniProt Q9UK17).
T5 construct: expressed in transfected cells
T5 sequence (Q9UK17 1-655): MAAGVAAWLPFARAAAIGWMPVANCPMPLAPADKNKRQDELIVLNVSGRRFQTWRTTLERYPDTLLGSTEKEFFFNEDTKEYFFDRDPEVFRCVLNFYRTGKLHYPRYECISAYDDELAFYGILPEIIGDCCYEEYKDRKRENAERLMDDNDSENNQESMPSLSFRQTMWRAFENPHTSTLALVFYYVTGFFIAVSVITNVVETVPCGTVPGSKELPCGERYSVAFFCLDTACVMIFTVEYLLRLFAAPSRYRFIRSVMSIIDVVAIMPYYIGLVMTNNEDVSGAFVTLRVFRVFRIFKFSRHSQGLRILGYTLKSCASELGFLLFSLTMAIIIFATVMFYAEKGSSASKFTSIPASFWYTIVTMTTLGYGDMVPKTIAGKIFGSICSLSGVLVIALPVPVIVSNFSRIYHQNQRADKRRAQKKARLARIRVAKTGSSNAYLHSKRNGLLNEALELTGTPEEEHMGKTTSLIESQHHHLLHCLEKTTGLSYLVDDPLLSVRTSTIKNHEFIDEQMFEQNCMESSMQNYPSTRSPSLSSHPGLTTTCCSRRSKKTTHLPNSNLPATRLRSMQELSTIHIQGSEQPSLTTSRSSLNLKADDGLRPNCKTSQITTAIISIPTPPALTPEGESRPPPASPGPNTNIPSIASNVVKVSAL
Briefly: voltage clamp currents in mammalian cells stably transfected with cloned ion channel cDNA, hKv4.3. The format is cell-based.
From the text: as §1

The mark [1] stands for this setting: 0.1 Hz, read-out: Estimated IC50 at 0.1 Hz.

T4 sequence (Q09470 whole entry): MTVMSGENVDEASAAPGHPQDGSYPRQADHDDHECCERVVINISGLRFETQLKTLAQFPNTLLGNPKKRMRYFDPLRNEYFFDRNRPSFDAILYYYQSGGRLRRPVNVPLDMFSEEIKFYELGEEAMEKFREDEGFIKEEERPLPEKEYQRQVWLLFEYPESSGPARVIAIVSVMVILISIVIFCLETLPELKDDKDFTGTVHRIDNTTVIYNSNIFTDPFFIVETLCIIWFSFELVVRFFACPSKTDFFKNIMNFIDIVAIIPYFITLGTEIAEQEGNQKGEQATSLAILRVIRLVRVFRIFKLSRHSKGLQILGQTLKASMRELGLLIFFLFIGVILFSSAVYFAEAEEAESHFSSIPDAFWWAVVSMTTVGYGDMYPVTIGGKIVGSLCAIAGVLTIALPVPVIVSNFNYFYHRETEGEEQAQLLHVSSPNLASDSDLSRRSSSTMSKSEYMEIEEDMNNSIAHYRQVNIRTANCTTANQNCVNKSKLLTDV
T1 sequence (Q12809 whole entry): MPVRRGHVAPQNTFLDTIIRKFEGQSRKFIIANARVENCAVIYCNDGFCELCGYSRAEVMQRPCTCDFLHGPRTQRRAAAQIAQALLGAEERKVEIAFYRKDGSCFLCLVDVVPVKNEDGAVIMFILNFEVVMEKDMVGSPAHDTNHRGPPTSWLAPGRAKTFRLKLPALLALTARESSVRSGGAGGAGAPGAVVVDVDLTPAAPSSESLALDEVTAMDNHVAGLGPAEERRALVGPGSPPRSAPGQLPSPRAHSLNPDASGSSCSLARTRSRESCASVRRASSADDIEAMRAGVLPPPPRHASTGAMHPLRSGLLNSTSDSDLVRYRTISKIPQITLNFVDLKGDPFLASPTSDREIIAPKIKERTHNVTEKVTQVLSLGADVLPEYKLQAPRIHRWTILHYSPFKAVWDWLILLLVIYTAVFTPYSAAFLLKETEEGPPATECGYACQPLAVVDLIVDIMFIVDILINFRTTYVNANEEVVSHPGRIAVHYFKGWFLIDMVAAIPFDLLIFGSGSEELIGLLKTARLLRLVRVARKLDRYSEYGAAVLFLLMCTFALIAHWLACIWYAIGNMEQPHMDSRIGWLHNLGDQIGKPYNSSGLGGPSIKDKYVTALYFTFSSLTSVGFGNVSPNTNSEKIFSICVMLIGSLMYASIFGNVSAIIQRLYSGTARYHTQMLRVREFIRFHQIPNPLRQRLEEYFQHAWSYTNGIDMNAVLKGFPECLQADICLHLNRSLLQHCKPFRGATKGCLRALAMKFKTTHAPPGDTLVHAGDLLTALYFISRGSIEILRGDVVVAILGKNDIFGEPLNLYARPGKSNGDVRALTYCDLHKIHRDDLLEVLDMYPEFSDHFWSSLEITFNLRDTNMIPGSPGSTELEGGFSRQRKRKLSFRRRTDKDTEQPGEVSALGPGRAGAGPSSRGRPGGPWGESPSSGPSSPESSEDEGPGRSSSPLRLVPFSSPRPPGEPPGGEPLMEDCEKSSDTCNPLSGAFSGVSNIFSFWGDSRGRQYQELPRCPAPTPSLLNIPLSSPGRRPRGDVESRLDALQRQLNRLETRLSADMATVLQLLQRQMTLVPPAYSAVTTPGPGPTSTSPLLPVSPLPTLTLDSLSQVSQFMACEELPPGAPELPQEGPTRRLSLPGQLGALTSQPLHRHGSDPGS

The term IC50 denotes the point on the concentration scale where inhibition reaches its midpoint. As for `O=c1[nH]c2ccccc2n1CCCN1CCC(n2c(=O)[nH]c3cc(Cl)ccc32)CC1` [domperidone, 1,3-dihydro-5-chloro-1-(1-(3-(2,3-dihydro-2-oxo-1H-benzimidazol-1-yl)propyl)-4-piperidinyl)-2H-benzimidazol-2-one], the “% Block at 1 μM/3 Hz” value came out at 98.0% at hERG (1 μM, 3 Hz); 23.7% on hNav1.5 (1 μM, 3 Hz); 49.6% at hCav1.2 (1 μM, 3 Hz). The “% Block at 10 μM/0.1 Hz” value is on record as 95.5% on hERG (10 μM, 0.1 Hz); 4.6% at hNav1.3 (10 μM); 20.3% on hHCN4 (10 μM); 37.3% at hNav1.5 (10 μM, 0.1 Hz); 1.9% on hKv1.1 (10 μM); 9% at hCav1.2 (10 μM, 0.1 Hz). Also, the “% Block at 10 μM/0.1 Hz” value on hKv1.3 (10 μM) came out at 17.6%; at hKv4.3 (10 μM) it was 0.5%. Further, the concentration for half-maximal inhibition (IC50) on hNav1.3 (setting [1]) is 207 µM; at hHCN4 (setting [1]), 30.3 µM; at hCav3.2 (Estimated IC50 at 0.1 Hz, 0.1 Hz), 10.2 µM; on hCav3.2 (Estimated IC50 at 3 Hz, 3 Hz) it was 1.22 µM; at hKv1.1 (setting [1]) it was 516 µM; at hKv1.3 (setting [1]) it was 46.8 µM. The IC50 at hKv4.3 (setting [1]) was 1990 µM.
